Measured values taken from patent US20050288323A1, “Octahydro-indolizine and quinolizine and hexahydro-pyrrolizine” (priority 2000, published 2005).

Target: T1, human histamine H3 receptor (Homo sapiens, UniProt Q9Y5N1)
T1 construct: One microgram of supercoiled H3 receptor cDNA was added to the cells and mixed; expressed in transfected cells; membranes
Experiment: [3H]-N-methylhistamine binding
Experimental: Thus in the present invention receptor binding was determined using the human histamine H3 receptor (See Lovenberg et al Mol. Pharmacol. 1999, 1107). Screening using the human receptor is particularly important for the identification of new therapies for the treatment of human disease. Conventional binding assays for example are determined using rat synaptosomes (Garbarg et al J. Pharmacol. Exp. Ther. 1992, 263, 304), rat cortical membranes (West et al Mol. Pharmacol. 1990, 610), and guinea pig brain (Korte et al Biochem. Biophys. Res. Commun. 1990, 978). Only limited studies have been performed previously using human tissue but these allude to significant differences in the pharmacology of rodent and primate receptors (West et al Eur. J. Pharmacol. 1999, 233).
Transfection of Cells with Human Histamine Receptor
A 10 cm tissue culture dish with a confluent monolayer of SK-N-MC cells was split two days prior to transfection. Using sterile technique the media was removed and the cells were detached from the dish by the addition of trypsin. One fifth of the cells were then placed onto a new 10 cm dish. Cells were grown in a 37° C. incubator with 5% CO2 in Minimal Essential Media Eagle with 10% Fetal Bovine Serum. After two days cells were approximately 80% confluent. These were removed from the dish with trypsin and pelleted in a clinical centrifuge. The pellet was then re-suspended in 400 μL complete media and transferred to an electroporation cuvette with a 0.4 cm gap between the electrodes (Bio-Rad #165-2088). One microgram of supercoiled H3 receptor cDNA was added to the cells and mixed. The voltage for the electroporation was set at 0.25 kV, the capacitance was set at 960 μF. After electroporation the cells were diluted into 10 mL complete media and plated onto four 10 cm dishes. Because of the variability in the efficiency of electroporation, four different concentrations of cells were plated. The ratios used were; 1:20, 1:10, 1:5, with the remainder of the cells being added to the fourth dish. The cells were allowed to recover for 24 hours before adding the selection media (complete media with 600 μg/mL G418). After 10 days dishes were analyzed for surviving colonies of cells. Dishes with well isolated colonies were used. Cells from individual colonies were isolated and tested. SK-N-MC cells were used because they give efficient coupling for inhibition of adenylate cyclase. The clones that gave the most robust inhibition of adenylate cyclase in response to histamine were used for further study.
[^3H]-N-methylhistamine Binding
Cell pellets from histamine H3 receptor-expressing SK-N-MC cells were homogenized in 20 mM TrisHCl/0.5 mM EDTA. Supernatants from a 800 g spin were collected, recentrifuged at 30,000 g for 30 minutes. Pellets were re-homogenized in 50 mM Tris/5 mM EDTA (pH 7.4). Membranes were incubated with 0.8 nM [^3H]-N-methylhistamine plus/minus test compounds for 45 min at 25° C. and harvested by rapid filtration over GF/C glass fiber filters (pretreated with 0.3% polyethylenimine) followed by four washes with ice cold buffer. Filters were dried, added to 4 mL scintillation cocktail and then counted on a liquid scintillation counter. Non-specific binding was defined with 10 μM histamine. The pKi values were calculated based on a Kd of 800 pM and a ligand concentration ([L]) of 800 pM according to the formula: Ki=(IC50)/(1+([L]/(Kd))

[1] = [3H]-N-methylhistamine 0.8 nM, membranes of H3 receptor-expressing SK-N-MC cells
[2] = Table 2, [3H]-N-methylhistamine binding
[3] = Table 3, [3H]-N-methylhistamine binding
[4] = Table 5, [3H]-N-methylhistamine binding
[5] = Table 1, [3H]-N-methylhistamine binding

T1 sequence (Q9Y5N1 whole entry): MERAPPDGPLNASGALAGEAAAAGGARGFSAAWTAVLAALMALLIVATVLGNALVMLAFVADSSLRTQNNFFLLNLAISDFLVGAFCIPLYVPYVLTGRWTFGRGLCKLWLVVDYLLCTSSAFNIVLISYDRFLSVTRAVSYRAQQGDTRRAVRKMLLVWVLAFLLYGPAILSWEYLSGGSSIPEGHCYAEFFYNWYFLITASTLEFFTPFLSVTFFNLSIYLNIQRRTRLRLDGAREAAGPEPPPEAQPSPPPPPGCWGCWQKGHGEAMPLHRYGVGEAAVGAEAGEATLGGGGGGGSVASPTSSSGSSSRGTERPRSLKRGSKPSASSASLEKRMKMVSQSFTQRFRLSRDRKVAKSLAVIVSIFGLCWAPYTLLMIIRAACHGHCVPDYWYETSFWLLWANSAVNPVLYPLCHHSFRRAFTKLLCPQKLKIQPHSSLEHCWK

In the case of `C(#CCN1CCCCC1)COc1ccc([C@H]2CC[C@H]3CCCCN32)cc1` (relative stereo) [Example 84, trans-3-[4-(3-Piperidinylmethylpropargyloxy)phenyl]octahydroindolizine], the Ki [1] is reported as 1.8 nM.

Compound `CS(=O)(=O)Nc1ccc(Oc2ccc([C@H]3CC[C@H]4CCCCN43)cc2)cc1` (racemic) [Example 79, trans-3-[4-(4-Methansulfonaminophenoxy)phenyl]octahydroindolizine] has a Ki [1] of 46 nM.

In the case of `OC(c1ccc(Cl)cc1)c1ccc(C2CCC3CCCCN32)cc1` (mixture of isomers) [Example 123, trans-3-{4-[(4-Chlorophenyl)methan-1-ol]phenyl}octahydroindolizine], the Ki [1] is reported as 803 nM.

`NCc1ccc(Sc2ccc([C@H]3CC[C@H]4CCCCN43)cc2)cc1` (racemic) [Example 44] was tested, and the Ki [1] was 9 nM.

In the case of `ClCCCCOc1ccc([C@@H]2CCC[C@@H]3CCCN32)cc1` (racemic) [Example 61, 5-[4-(4-Chlorobutanoxy)phenyl]octahydroindolizine], the Ki [1] is reported as 278 nM.

`O=C(CCCN1CCCCC1)Nc1ccc([C@@H]2CC[C@@H]3CCCCN32)cc1` (relative stereo) [Example 111, trans-3-[4-(N-4-Piperidylbutanamido)phenyl]octahydroindolizine] was tested, and the Ki [1] was 3 nM.

In the case of `N=C(N)N1CCCCC1CCOc1ccc([C@H]2CC[C@H]3CCCCN32)cc1` (mixture of isomers) [Example 90, trans-3-{4-[2,2′-(N-Amidinopiperidinyl)ethoxy]phenyl}octahydroindolizine], the Ki [1] is reported as 80 nM.

In the case of `c1ccc2[nH]c(Oc3ccc([C@H]4CC[C@H]5CCCCN54)cc3)nc2c1` (racemic) [Example 30], the Ki [2] is reported as 490 nM.

`O=[N+]([O-])c1ccc(Sc2ccc([C@@H]3CCC[C@@H]4CCCN43)cc2)cc1` (racemic) [Example 27, 5-[4-(4-Nitrophenylthio)phenyl]octahydroindolizine] was tested, and the Ki [1] was 323 nM.

Compound `c1cc(-c2ccc([C@H]3CC[C@H]4CCCCN43)cc2)cs1` (racemic) [Example 49] has a Ki [3] of 503 nM.

In the case of `CS(=O)(=O)Nc1cccc(COc2ccc([C@H]3CC[C@H]4CCCCN43)cc2)c1` (racemic) [Example 83, trans-3-[4-(3-Methansulfonaminobenzyloxy)phenyl]octahydroindolizine], the Ki [1] is reported as 308 nM.

`COc1ccccc1[C@H]1C[C@@H]2CCCCN2C1` (relative stereo) [Example 70, anti-2-(2-Methoxyphenyl)octahydroindolizine] was tested, and the Ki [1] was 792 nM.

Compound `CS(=O)(=O)N(c1ccc([C@@H]2CC[C@@H]3CCCCN32)cc1)S(C)(=O)=O` (relative stereo) [Example 98, trans-3-(4-(bis-Methylsulfonylamino)phenyl)octahydroindolizine] has a Ki [1] of 787 nM.

`O=Cc1ccc(-c2ccc([C@H]3CC[C@H]4CCCCN43)cc2)cc1` (racemic) [Example 52] showed a Ki [3] of 221 nM.

`CN1CCCC1CCOc1ccc([C@H]2CC[C@H]3CCCCN32)cc1` (mixture of isomers) [Example 91, trans-3-{4-[2,2′-(N-Methylpyrrolidinyl)ethoxy]phenyl}octahydroindolizine] was tested, and the Ki [1] was 2 nM.

Compound `c1cncc(CNc2ccc([C@H]3CC[C@H]4CCCCN43)cc2)c1` (racemic) [Example 127] has a Ki [4] of 589 nM.

Compound `c1ccc2c(Oc3ccc([C@H]4CC[C@H]5CCCCN54)cc3)ncnc2c1` (racemic) [Example 34, 4-[4-(Octahydro-indolizin-3-yl)-phenoxy]-quinazoline] has a Ki [1] of 92 nM.

With `c1cc(Oc2ccc([C@H]3CC[C@H]4CCCCN43)cc2)ccn1` (racemic) [Example 76, trans-3-[4-(4-Pyridyloxy)phenyl]octahydroindolizine] the Ki [1] was 77 nM.

In the case of `O=[N+]([O-])c1ccc(Oc2ccc([C@H]3CC[C@H]4CCCCN43)cc2)cc1` (racemic) [Example 77, trans-3-[4-(4-Nitrophenoxy)phenyl]octahydroindolizine], the Ki [1] is reported as 1560 nM.

`CS(=O)(=O)Nc1ccc([C@@H]2CC[C@@H]3CCCCN32)cc1` (relative stereo) [Example 97, trans-3-(4-(Methylsulfonylamino)phenyl)octahydroindolizine] showed a Ki [1] of 481 nM.

For `c1cc([C@@H]2CCC[C@@H]3CCCN32)ccc1OCCCCCN1CCCCC1` [Example 65], the Ki [1] was 1 nM.

For `CN(C)c1ccc([C@@H]2CC[C@@H]3CCCCN32)cc1` (relative stereo) [Example 96, trans-3-(4-(N,N-Dimethylamino)phenyl)octahydroindolizine], the Ki [1] was 380 nM.

In the case of `c1cc([C@@H]2CC[C@@H]3CCCCN32)ccc1NC1CCNCC1` (relative stereo) [Example 101, trans-3-[4-(4-Piperidinylamino)phenyl]octahydroindolizine], the Ki [1] is reported as 314 nM.

`O=c1[nH]c(Sc2ccc([C@H]3CC[C@H]4CCCCN43)cc2)nc2ccccc12` (racemic) [Example 33] was tested, and the Ki [2] was 163 nM.

Compound `C=CC(=O)N(C)c1ccc([C@@H]2CC[C@@H]3CCCCN32)cc1` (relative stereo) [Example 108, N-Methyl-N-[4-(trans-Octahydro-3-indolizinyl)phenyl]propenamide] has a Ki [1] of 2770 nM.

Work on `c1ccc(CNc2ccc([C@H]3CC[C@H]4CCCCN43)cc2)cc1` (racemic) [Example 132] yielded a Ki [4] of 511 nM.

In the case of `Nc1ccc(Oc2ccc([C@H]3CC[C@H]4CCCCN43)cc2)cc1` (racemic) [Example 78, trans-3-[4-(4-Aminophenoxy)phenyl]octahydroindolizine], the Ki [1] is reported as 296 nM.

`CCN(c1ccc([C@H]2CC[C@H]3CCCCN32)cc1)C1CCN(S(C)(=O)=O)CC1` (racemic) [Example 104, trans-3-[4-(N-Ethyl-N-4-N-methylsufonylpiperidinylamino)phenyl]octahydroindolizine] showed a Ki [1] of 1780 nM.

`c1cc([C@@H]2CC[C@@H]3CCCCN32)ccc1NCCCN1CCCCC1` (relative stereo) [Example 106, trans-3-[4-(N-3-Piperidylpropylamino)phenyl]octahydroindolizine] showed a Ki [1] of 1.5 nM.

In the case of `c1ccc(Oc2ccc([C@H]3CC[C@H]4CCCCN43)cc2)cc1` (racemic) [Example 11], the Ki [5] is reported as 400 nM.

`c1cc([C@H]2CC[C@H]3CCCCN32)ccc1OCCCN1CCCCC1` [Example 93, (R, R)-3-(4-(3-Piperidinylpropoxy)phenyl)octahydroindolizine] showed a Ki [1] of 0.06 nM.

`NC(=NO)c1ccc(Sc2ccc([C@H]3CC[C@H]4CCCCN43)cc2)cc1` (racemic) [Example 43, tran-3-[4-((4-Amidoxime)phenylthio)phenyl]octahydroindolizine] was tested, and the Ki [1] was 40 nM.

`CC(C)(C)OC(=O)N1CCCCC1CCOc1ccc([C@H]2CC[C@H]3CCCCN32)cc1` (mixture of isomers) [Example 85, trans-3-{4-[2,2′-(1-tert-Butylcarboxylatepiperidinyl)ethoxy]phenyl}-octahydroindolizine] gave a Ki [1] of 51 nM.

In the case of `CN(C(=O)CCCCN1CCCCC1)c1ccc([C@H]2CC[C@H]3CCCCN32)cc1` (racemic) [Example 113, trans-3-[4-(N-Methyl-N-5-piperidylpentanamido)phenyl]octahydroindolizine], the Ki [1] is reported as 63 nM.

In the case of `c1ccc(-c2ccc([C@H]3CC[C@H]4CCCCN43)cc2)cc1` (racemic) [Example 3], the Ki [5] is reported as 1000 nM.
